Test results published in article PMC8037669, “Discovery of Novel Sultone Fused Berberine Derivatives as Promising Tdp1 Inhibitors” (Molecules, 2021).
Values joined by “and” are separate entries in the source; they are usually repeats but may differ in a detail not shown here. Equal values may be shown once. “Also recorded” adds a separate entry of the source. Read-outs that look alike come from different tables or passages of the source.

How the values were obtained:
[1] = biological target: T1, tyrosyl-DNA phosphodiesterase 1 (Tdp1) (Homo sapiens, UniProt Q9NUW8); assay: Tdp1 activity, fluorescent oligonucleotide biosensor (FAM/BHQ1) assay; format: biochemical; settings: purified Tdp1 1.5 nM, 50 nM biosensor; read-out: Tdp1 inhibiting activity IC50
T1 construct: Purified Tdp1 (1.5 nM) triggered the reaction
Procedure: In this work, newly synthesized sultones were tested for their inhibition of Tdp1. Tdp1 activity was measured using a fluorescent biosensor as previously described. The biosensor is an oligonucleotide with a fluorophore (FAM) at the 5′-end and a fluorescence quencher (BHQ1) at the 3′-end. Due to the activity of the enzyme, the quencher is removed, which leads to an increase in the fluorescence intensity. Inhibitors prevent the removal of the quencher, thus reducing the fluorescence intensity.
Tdp1 activity was detected, as described in the work in Reference, and consists of fluorescence intensity measurement in a reaction of quencher removal from a fluorophore quencher–coupled DNA oligonucleotide catalyzed by Tdp1. The reaction was carried out at different concentrations of inhibitors (the control samples contained 1% of DMSO). The reaction mixtures contained Tdp1 buffer (50 mM Tris-HCl pH 8.0, 50 mM NaCl, and 7 mM β-mercaptoethanol), 50 nM biosensor, and an inhibitor being tested. Purified Tdp1 (1.5 nM) triggered the reaction. The biosensor (5′-[FAM] AAC GTC AGGGTC TTC C [BHQ]-3′) was synthesized in the Laboratory of Biomedical Chemistry at the Institute of Chemical Biology and Fundamental Medicine (Novosibirsk, Russia).
The reactions were incubated on a POLARstar OPTIMA fluorimeter (BMG LABTECH, GmbH, Ortenberg, Germany) to measure fluorescence every 55 s (ex. 485/em. 520 nm) during the linear phase (here, data from minute 0 to minute 8). The values of IC50 were determined using a six-point concentration response curve in a minimum of three independent experiments and were calculated using MARS Data Analysis 2.0 (BMG LABTECH, Ortenberg, Germany).

[2] = Cytotoxicity, EZ4U Cell Proliferation and Cytotoxicity Assay; format: cell-based, human; settings: human
Procedure: (§1) All compounds have no intrinsic toxicity in the concentration range up to 100 μM (Figure 8) in HeLa cells, with the exception of 16a and berberine, which are toxic at concentrations above 20 μM. 16a is slightly toxic (CC50 ~ 100 μM) and differs from non-toxic 10a in the presence of a double bond in the sultone cycle. The original berberine 1 is toxic to HeLa cells with a cytotoxic concentration (CC50) of 20 μM, which is consistent with the literature data.
(§2) Cytotoxicity of the compounds to HeLa (human cervical cancer) cell line was examined using the EZ4U Cell Proliferation and Cytotoxicity Assay (Biomedica, Vienna, Austria), according to the manufacturer’s protocols. The cells were grown in Iscove’s modified Dulbecco’s medium (IMDM) with 40 μg/mL gentamicin, 50 IU/mL penicillin, 50 μg/mL streptomycin (MP Biomedicals, Waltham, MA, USA), and 10% of fetal bovine serum (Biolot, Saint Petersburg, Russia) in a 5% CO2 atmosphere. After the formation of a 30–50%-monolayer, the tested compounds were added to the medium. The volume of the added reagents was 1/100 of the total volume of the culture medium, and the amount of DMSO was 1% of the final volume. Control cells were grown in the presence of 1% DMSO. The cell culture was monitored for 3 days.

HeLa cells [3] = assay: as above; format: cell-based, human
Procedure: as §1, §2

HeLa cells [4] = assay: Sensitization of cells to topotecan cytotoxicity by Tdp1 inhibitors; format: cell-based, human; settings: inhibitor at 20 μM, varied topotecan concentrations; Mann-Whitney U-test, p = 0.05
Procedure: In this work, we also tested the ability of the berberrubine sultones to sensitize cells to the action of topotecan. For this, we chose a non-toxic concentration of Tdp1 inhibitors at 20 μM and varied the concentrations of topotecan.
as §2

[5] = biological target: T1, tyrosyl-DNA phosphodiesterase 1 (Tdp1); settings: previous work of the group; read-out: Tdp1 IC50 of previously synthesized berberine derivatives; cited from earlier work

T1 sequence (Q9NUW8 whole entry): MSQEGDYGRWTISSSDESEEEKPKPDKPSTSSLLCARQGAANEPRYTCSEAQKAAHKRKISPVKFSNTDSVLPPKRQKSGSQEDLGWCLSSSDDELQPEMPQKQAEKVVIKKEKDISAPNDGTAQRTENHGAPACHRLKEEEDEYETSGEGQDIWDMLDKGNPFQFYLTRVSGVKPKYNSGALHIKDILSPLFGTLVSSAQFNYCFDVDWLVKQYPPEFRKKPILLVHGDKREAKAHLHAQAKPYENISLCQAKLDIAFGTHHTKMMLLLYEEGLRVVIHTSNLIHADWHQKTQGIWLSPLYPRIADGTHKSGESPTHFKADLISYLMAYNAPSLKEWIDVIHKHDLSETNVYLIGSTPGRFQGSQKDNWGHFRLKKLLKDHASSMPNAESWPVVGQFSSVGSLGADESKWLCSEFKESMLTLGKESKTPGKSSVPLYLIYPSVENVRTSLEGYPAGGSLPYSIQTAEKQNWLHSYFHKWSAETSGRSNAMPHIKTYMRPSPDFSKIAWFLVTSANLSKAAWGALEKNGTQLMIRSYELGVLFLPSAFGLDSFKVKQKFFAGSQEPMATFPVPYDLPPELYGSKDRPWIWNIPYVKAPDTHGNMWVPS

Structure (SMILES)	IC50 [1]	CC50 at 3 days [2] [nM]	further results
COc1ccc2c3c1OS(=O)(=O)CC3N1CCc3cc4c(cc3C1=C2)OCO4 (stereo not drawn) [10a, 19-Methoxy-8,10,21-trioxa-22λ⁶-thia-2-azahexacyclo[14.7.1.0^2,¹⁴.0⁵,¹^3.0⁷,¹¹.0^2⁰,^2⁴]tetracosa-5,7(11),12,14,16,18,20(24)-heptaene-22,22-dione]	1530 ± 180 nM	> 100000	
COc1ccc2c3c1OS(=O)(=O)C(C)C3N1CCc3cc4c(cc3C1=C2)OCO4 (stereo not drawn) [10b, 19-Methoxy-23-methyl-8,10,21-trioxa-22λ⁶-thia-2-azahexacyclo[14.7.1.0^2,¹⁴.0⁵,¹^3.0⁷,¹¹.0^2⁰,^2⁴]tetracosa-5,7(11),12,14,16,18,20(24)-heptaene-22,22-dione]	2130 ± 160 nM	> 100000	
CCC1C2c3c(ccc(OC)c3OS1(=O)=O)C=C1c3cc4c(cc3CCN12)OCO4 (stereo not drawn) [10c, 23-Ethyl-19-methoxy-8,10,21-trioxa-22λ⁶-thia-2-azahexacyclo[14.7.1.0^2,¹⁴.0⁵,¹^3.0⁷,¹¹.0^2⁰,^2⁴]tetracosa-5,7(11),12,14,16,18,20(24)-heptaene-22,22-dione]	5500 ± 100 nM	> 100000	
CCCC1C2c3c(ccc(OC)c3OS1(=O)=O)C=C1c3cc4c(cc3CCN12)OCO4 (stereo not drawn) [10d, 19-Methoxy-23-propyl-8,10,21-trioxa-22λ⁶-thia-2-azahexacyclo[14.7.1.0^2,¹⁴.0⁵,¹^3.0⁷,¹¹.0^2⁰,^2⁴]tetracosa-5,7(11),12,14,16,18,20(24)-heptaene-22,22-dione]	1120 ± 180 nM	> 100000	
COc1ccc2c3c1OS(=O)(=O)C=C3N1CCc3cc4c(cc3C1=C2)OCO4 [16a, 19-Methoxy-8,10,21-trioxa-22λ⁶-thia-2-azahexacyclo[14.7.1.0^2,¹⁴.0⁵,¹^3.0⁷,¹¹.0^2⁰,^2⁴]tetracosa-1(23),5,7(11),12,14,16,18,20(24)-octaene-22,22-dione]	2500 ± 400 nM	~100000	concentration above which toxic to HeLa cells (HeLa cells [3]; human, 3 days): above 20 μM
COc1cc(Br)c2c3c1OS(=O)(=O)CC3N1CCc3cc4c(cc3C1=C2)OCO4 (stereo not drawn) [18a, 17-Bromo-19-methoxy-8,10,21-trioxa-22λ⁶-thia-2-azahexacyclo[14.7.1.0^2,¹⁴.0⁵,¹^3.0⁷,¹¹.0^2⁰,^2⁴]tetracosa-5,7(11),12,14,16,18,20(24)-heptaene-22,22-dione]	925 nM and 920 nM	> 100000	
COc1cc(Br)c2c3c1OS(=O)(=O)C(C)C3N1CCc3cc4c(cc3C1=C2)OCO4 (stereo not drawn) [18b, 17-Bromo-19-methoxy-23-methyl-8,10,21-trioxa-22λ⁶-thia-2-azahexacyclo[14.7.1.0^2,¹⁴.0⁵,¹^3.0⁷,¹¹.0^2⁰,^2⁴]tetracosa-5,7(11),12,14,16,18,20(24)-heptaene-22,22-dione]	1130 ± 200 nM	> 100000	
CCC1C2c3c(c(Br)cc(OC)c3OS1(=O)=O)C=C1c3cc4c(cc3CCN12)OCO4 (stereo not drawn) [18c, 17-Bromo-23-ethyl-19-methoxy-8,10,21-trioxa-22λ⁶-thia-2-azahexacyclo[14.7.1.0^2,¹⁴.0⁵,¹^3.0⁷,¹¹.0^2⁰,^2⁴]tetracosa-5,7(11),12,14,16,18,20(24)-heptaene-22,22-dione]	560 ± 20 nM	> 100000	sensitizing effect on topotecan cytotoxicity (HeLa cells [4]): most pronounced and statistically significant; also recorded: enhances the cytotoxic effect of topotecan
CCCC1C2c3c(c(Br)cc(OC)c3OS1(=O)=O)C=C1c3cc4c(cc3CCN12)OCO4 (stereo not drawn) [18d, 17-Bromo-19-methoxy-23-propyl-8,10,21-trioxa-22λ⁶-thia-2-azahexacyclo[14.7.1.0^2,¹⁴.0⁵,¹^3.0⁷,¹¹.0^2⁰,^2⁴]tetracosa-5,7(11),12,14,16,18,20(24)-heptaene-22,22-dione]	780 ± 30 nM	> 100000	
COc1ccc2c(c1OS(C)(=O)=O)CN1CCc3cc4c(cc3C1C2)OCO4 (stereo not drawn) [21a]			IC50 [5]: > 15000 nM
CCS(=O)(=O)Oc1c(OC)ccc2c1CN1CCc3cc4c(cc3C1C2)OCO4 (stereo not drawn) [21b]			IC50 [5]: > 15000 nM
COc1ccc2cc3[n+](cc2c1OC)CCc1cc2c(cc1-3)OCO2 [berberine 1, berberine]			CC50 at 3 days ([2]; HeLa cells, EZ4U test, 3 days, read-out: CC50 HeLa): 20000 nM; concentration above which toxic to HeLa cells (HeLa cells [3]; HeLa cells): above 20 μM
